The target of this assay is T1, E. faecium PolC^F1276L (exonuclease-inactivated) (Enterococcus faecium, UniProt A0A9X4B319, D429A/E431A/F1274L).
T1 sequence (A0A9X4B319 1-1450 D429A/E431A/F1274L): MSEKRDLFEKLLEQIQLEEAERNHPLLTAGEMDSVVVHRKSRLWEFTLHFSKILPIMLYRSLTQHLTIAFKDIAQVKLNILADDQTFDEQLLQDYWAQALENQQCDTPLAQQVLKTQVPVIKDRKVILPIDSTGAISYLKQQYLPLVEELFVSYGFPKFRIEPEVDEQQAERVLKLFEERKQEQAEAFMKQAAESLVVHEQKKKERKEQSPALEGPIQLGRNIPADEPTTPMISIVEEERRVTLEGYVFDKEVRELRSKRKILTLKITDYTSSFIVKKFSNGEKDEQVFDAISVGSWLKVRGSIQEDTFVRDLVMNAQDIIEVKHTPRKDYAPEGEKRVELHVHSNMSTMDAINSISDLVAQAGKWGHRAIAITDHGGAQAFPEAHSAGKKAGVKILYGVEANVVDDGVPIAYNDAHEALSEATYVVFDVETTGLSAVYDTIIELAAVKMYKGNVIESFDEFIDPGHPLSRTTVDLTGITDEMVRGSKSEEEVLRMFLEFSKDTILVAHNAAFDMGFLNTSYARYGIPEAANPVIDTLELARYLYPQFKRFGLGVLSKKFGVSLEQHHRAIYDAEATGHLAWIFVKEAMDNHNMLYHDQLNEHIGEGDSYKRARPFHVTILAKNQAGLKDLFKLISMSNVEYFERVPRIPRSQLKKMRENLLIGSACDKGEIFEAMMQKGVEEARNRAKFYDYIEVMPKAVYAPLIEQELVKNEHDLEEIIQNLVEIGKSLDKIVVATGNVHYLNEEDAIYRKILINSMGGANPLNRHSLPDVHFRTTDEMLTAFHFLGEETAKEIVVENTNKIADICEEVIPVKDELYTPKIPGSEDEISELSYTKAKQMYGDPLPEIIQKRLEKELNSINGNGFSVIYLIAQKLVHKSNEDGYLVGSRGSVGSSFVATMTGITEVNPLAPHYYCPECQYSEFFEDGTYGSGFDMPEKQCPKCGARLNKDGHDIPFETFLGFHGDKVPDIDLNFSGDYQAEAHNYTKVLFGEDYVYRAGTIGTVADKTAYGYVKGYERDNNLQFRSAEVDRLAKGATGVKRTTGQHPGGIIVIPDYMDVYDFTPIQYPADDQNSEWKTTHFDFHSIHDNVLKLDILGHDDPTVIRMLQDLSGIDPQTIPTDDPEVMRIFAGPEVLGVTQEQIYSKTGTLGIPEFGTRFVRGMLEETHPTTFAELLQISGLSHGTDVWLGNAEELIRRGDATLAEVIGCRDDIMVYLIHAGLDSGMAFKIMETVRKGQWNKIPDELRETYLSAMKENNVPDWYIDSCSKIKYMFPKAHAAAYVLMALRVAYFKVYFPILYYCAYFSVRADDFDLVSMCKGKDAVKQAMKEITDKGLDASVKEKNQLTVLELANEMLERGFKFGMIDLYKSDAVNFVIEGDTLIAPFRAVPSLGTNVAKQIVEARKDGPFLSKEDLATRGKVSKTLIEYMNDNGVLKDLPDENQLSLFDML
Nature of the assay: Real-time DNA primer extension assay. The format is biochemical. Conditions: for rate of activity (slope of fluorescence intensity change over time): Fig. 4b source data, F1276L. The text has this: The genes for PolC (locus_tag: MIBBHLJO_01574) and DnaE (locus_tag: MIBBHLJO_00911) from E. faecium ATCC 700221 were codon-optimized for expression in E. coli and synthesized in vector pET28b by Twist Bioscience (San Francisco, CA). Expression constructs for variant PolC proteins were created with QuikChange Site-Directed Mutagenesis (Agilent) with oligonucleotides listed in Supplementary Table 3. F1276L, F1276S, and A1281T were introduced to assess the effect of these mutations on inhibition by ACX compounds. Mutations D972A and D974A were introduced to inactivate the polymerase activity and mutations D431A and E433A were introduced to inactivate the exonuclease activity (Fig. 1d, Supplementary Fig. 1).
Polymerase activity was monitored in real-time[31],[32] with a 42-nt long 5’ carboxyfluorescein-labelled DNA oligonucleotide template strand (DNASP8_42) annealed to a 30-nt primer oligonucleotide (oMU014). Polymerase activity in this assay is monitored by measuring fluorescence quenching of the labelled DNA template as a result of primer extension by PolC (for details see Supplementary Fig. 1b, c). Both primers were HPLC purified. Primer extension assays were performed in Reaction Buffer (see Gel-based polymerase and exonuclease assays) supplemented with 0.5 mg/mL BSA, 0.05% Tween20 and 25 uM of each dNTP (SRB) in 384-well Black Round Bottom plates (Corning 4514). The polymerase was diluted in the SRB and incubated for at least 5 min in the presence of inhibitor or solvent, with a final solvent concentration of 1%. The reaction was initiated by the addition of an equal volume of DNA substrate in SRB as described below. Fluorescence emission data was collected with a BMG Labtech PHERAstar FSX reader for 30 min at room temperature.
Compounds were dispensed with an Echo acoustic liquid handler (Beckman Coulter). All compounds were dissolved to 1 mM and 10 mM stocks in 100% DMSO and transferred to Echo LDV or PP source plates (Labcyte, Inc., CA), then dispensed to 384-well plates with a Labcyte Echo550 or Echo650 acoustic dispenser at volumes of 2.5 to 100 nL per well. […] A Mantis microfluidic liquid dispenser (Formulatrix) was used to dispense 5 µL polymerase and 5 µL substrate DNA (individually diluted in SRB) per well. […] The final concentration of DNA was 70 nM.
Data were analysed and standard error of the means (SEM) determined in Prism 8.4.2 and 10.2.3 (GraphPad). Raw time-course polymerase activity was plotted against time, with SEM of triplicates determined. The rate of activity (represented by signal quenching) was determined during the first 8 min (linear stage) by calculating the slope of fluorescence intensity change (converted to a positive value) over time (in seconds). The slopes were then normalized to percentage activity (%); per ‘replicate range’, 100% activity was defined as polymerase activity in the absence of inhibitor (polymerase control), and 0% activity was determined in the absence of polymerase (DNA signal; negative control). The SEM was determined between ‘replicate ranges’. The IC50 was determined using the dose-response (inhibition) nonlinear regression ‘[Inhibitor] vs. response (three parameters)’ without constraints.

“And” between values parts separate entries of the source, which are not always exact repeats. Identical values can stand only once. Bounds are passed on as bounds.

In general, IC50 refers to the concentration at which inhibition is half-maximal. A high value points to a need for much substance. As for `O=c1[nH]c(NCc2ccc(Cl)c(Cl)c2)nc2ncn(CCN3CCOCC3)c12` [IBZ, N^2-(3,4-dichlorobenzyl)-7-(2-[1-morpholinyl]ethyl)guanine], the IC50 was above 225 µM. In addition, the “rate of activity (slope of fluorescence intensity change over time)” value (inhibitor 4 uM) was 28.2 and 29.1 and 29.0. For the same compound, the “rate of activity (slope of fluorescence intensity change over time)” value (inhibitor 5.75 uM) was 29.9 and 30.4. In addition, the “rate of activity (slope of fluorescence intensity change over time)” value (inhibitor 8.8 uM) is 26.3 and 30.0. Further, the “rate of activity (slope of fluorescence intensity change over time)” value (inhibitor 20 uM) was 26.8 and 26.3. For the same compound, under “inhibitor 30 uM”, the “rate of activity (slope of fluorescence intensity change over time)” value was 27.4 and 27.1. Moreover, the “rate of activity (slope of fluorescence intensity change over time)” value (inhibitor 45 uM) was 25.1 and 26.5 and 24.8. The “rate of activity (slope of fluorescence intensity change over time)” value (inhibitor 67.5 uM) is 23.8 and 26.5 and 24.8. In addition, the “rate of activity (slope of fluorescence intensity change over time)” value (inhibitor 100 uM) is 24.9 and 23.0 and 25.8. For the setting “inhibitor 150 uM”, the “rate of activity (slope of fluorescence intensity change over time)” value came to 23.2.

As for `O=c1[nH]c(NCc2ccc3c(c2)OC(F)(F)O3)nc2c(F)nn(CCO)c12` [ACX-801, 5-(((2,2-difluorobenzo[d][1,3]dioxol-5-yl)methyl)amino)-3-fluoro-1-(2-hydroxyethyl)-1,6-dihydro-7H-pyrazolo[4,3-d]pyrimidin-7-one], the IC50 was above 225 µM. Also, under “inhibitor 4 uM”, the “rate of activity (slope of fluorescence intensity change over time)” value was 29.6 and 27.7 and 30.1. For the setting “inhibitor 5.75 uM”, the “rate of activity (slope of fluorescence intensity change over time)” value is 28.5 and 26.4 and 28.8. Also, the “rate of activity (slope of fluorescence intensity change over time)” value (inhibitor 8.8 uM) was 26.7 and 28.0 and 26.2. In addition, the “rate of activity (slope of fluorescence intensity change over time)” value (inhibitor 20 uM) was 25.3 and 26.0 and 26.9. Also, the “rate of activity (slope of fluorescence intensity change over time)” value (inhibitor 30 uM) was 26.3 and 26.7 and 25.0. Also, the “rate of activity (slope of fluorescence intensity change over time)” value (inhibitor 45 uM) is given as 25.4.
